ChEMBL document CHEMBL1201862, “PubChem BioAssay data set” (2004)
The source made the active and inactive calls.

How the values were obtained:
[1] = target: T1, Eukaryotic translation initiation factor 2-alpha kinase 3 (Homo sapiens, UniProt Q9NZJ5); test: Dose response cell-based high-throughput screening assay to measure PERK inhibition. [Related pubchem assays: 1416 ]; assay type: functional
[2] = target: T1, Eukaryotic translation initiation factor 2-alpha kinase 3; test: Counterscreen assay for PERK inhibitors: Dose response cell-based high throughput screening assay to measure inhibition of PERK at 6 hours. [Related pubchem assays: 1522, 1416 ]; assay type: functional
[3] = target: Photoreceptor-specific nuclear receptor (Homo sapiens, UniProt Q9Y5X4); assay type: functional;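 also: potency for compounds that break the NR2E3 corepressor complex and count as activators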
[4] = target: Peroxisome proliferator-activated receptor gamma/Nuclear receptor corepressor 2 (Homo sapiens, UniProt P37231+Q9Y618); assay type: functional
Large T antigen = Large T antigen (Simian virus 40, UniProt P03070); assay type: functional, Betapolyomavirus macacae;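 also: Confirmatory-stage PubChem screen for compounds that inhibit SV40 T antigen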
[5] = target: Likely tRNA 2'-phosphotransferase (Candida albicans (strain SC5314 / ATCC MYA-2876) (Yeast), UniProt Q5A7N4); test: TPT1 tRNA phosphotransferase inhibitors, dose response, biochemical, fluorescence polarization (AID 2160)
[6] = target: T2, Voltage-gated N-type calcium channel alpha-1B subunit/Amyloid beta A4 precursor protein-binding family A member 1 (Homo sapiens, UniProt Q00975+Q02410); assay type: protein assay
[7] = target: T2, Voltage-gated N-type calcium channel alpha-1B subunit/Amyloid beta A4 precursor protein-binding family A member 1; assay type: protein assay; remark: listed apart in the source
[8] = target: Guanyl-specific ribonuclease T1 (Aspergillus oryzae (strain ATCC 42149 / RIB 40), UniProt P00651); test: RNase T1 inhibitors, dose response, counter-screen for TPT1 inhibitor project, biochemical, fluorescence polarization, 1536-well (AID 2167)
[9] = target: T3, Rac GTPase-activating protein 1 (Homo sapiens, UniProt Q9H0H5); test: MgcRacGAP GTPase-activating activity inhibitors, confirmation, biochemical, ADP Hunter fluorescence, primary and confirmatory (AID 624330); assay type: functional
T3 sequence (Q9H0H5 whole entry): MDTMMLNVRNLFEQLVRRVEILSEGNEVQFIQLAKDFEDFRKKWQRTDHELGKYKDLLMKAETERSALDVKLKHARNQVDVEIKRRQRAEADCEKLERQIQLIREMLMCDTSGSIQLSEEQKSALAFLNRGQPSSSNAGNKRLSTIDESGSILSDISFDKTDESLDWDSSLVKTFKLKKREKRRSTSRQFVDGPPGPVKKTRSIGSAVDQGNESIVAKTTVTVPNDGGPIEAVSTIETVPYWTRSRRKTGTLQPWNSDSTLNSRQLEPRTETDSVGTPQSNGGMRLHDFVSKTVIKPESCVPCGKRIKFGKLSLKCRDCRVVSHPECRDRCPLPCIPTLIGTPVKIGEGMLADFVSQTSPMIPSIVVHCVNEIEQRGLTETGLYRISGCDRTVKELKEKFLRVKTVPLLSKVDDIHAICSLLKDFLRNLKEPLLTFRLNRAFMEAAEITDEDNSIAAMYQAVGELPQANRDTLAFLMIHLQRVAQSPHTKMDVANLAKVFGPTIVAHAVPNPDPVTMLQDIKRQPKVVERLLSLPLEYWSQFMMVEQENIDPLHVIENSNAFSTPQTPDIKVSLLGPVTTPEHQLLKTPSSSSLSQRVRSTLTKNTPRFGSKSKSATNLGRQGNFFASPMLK

Troponin, cardiac muscle = Troponin, cardiac muscle (Homo sapiens, UniProt P19429+P45379+P63316); test: Fluorescence-based biochemical high throughput dose response assay for activators of the calcium sensitivity of cardiac Regulated Thin Filaments (RTF). [Related pubchem assays (depositor defined):AID493008, AID493018, AID504382, AID504383]; assay type: protein-complex assay
[10] = polyadenylation inhibitors in yeast reporter, dose response, luminescence, S. cerevisiae SKY197-pL101 (AID 2525); assay type: functional, cell-based
[11] = Luminescence Cell-Based Dose Confirmation HTS to Identify Inhibitors of Polyadenylation.; assay type: functional
[12] = HeLa cell cytotoxicity, dose response, cytotoxicity control for MgcRacGAP inhibitor project (AID 624300); assay type: functional
[13] = target: Lysosomal acid glucosylceramidase (Homo sapiens, UniProt P04062); test: Dose response cell-based high throughput screening assay to identify enhancers of beta-glucosidase activity. [Related pubchem assays: 784 ]; assay type: functional
[14] = target: T4, Histone-lysine N-methyltransferase NSD2 (Homo sapiens, UniProt O96028); assay type: biochemical
T4 sequence (O96028 whole entry): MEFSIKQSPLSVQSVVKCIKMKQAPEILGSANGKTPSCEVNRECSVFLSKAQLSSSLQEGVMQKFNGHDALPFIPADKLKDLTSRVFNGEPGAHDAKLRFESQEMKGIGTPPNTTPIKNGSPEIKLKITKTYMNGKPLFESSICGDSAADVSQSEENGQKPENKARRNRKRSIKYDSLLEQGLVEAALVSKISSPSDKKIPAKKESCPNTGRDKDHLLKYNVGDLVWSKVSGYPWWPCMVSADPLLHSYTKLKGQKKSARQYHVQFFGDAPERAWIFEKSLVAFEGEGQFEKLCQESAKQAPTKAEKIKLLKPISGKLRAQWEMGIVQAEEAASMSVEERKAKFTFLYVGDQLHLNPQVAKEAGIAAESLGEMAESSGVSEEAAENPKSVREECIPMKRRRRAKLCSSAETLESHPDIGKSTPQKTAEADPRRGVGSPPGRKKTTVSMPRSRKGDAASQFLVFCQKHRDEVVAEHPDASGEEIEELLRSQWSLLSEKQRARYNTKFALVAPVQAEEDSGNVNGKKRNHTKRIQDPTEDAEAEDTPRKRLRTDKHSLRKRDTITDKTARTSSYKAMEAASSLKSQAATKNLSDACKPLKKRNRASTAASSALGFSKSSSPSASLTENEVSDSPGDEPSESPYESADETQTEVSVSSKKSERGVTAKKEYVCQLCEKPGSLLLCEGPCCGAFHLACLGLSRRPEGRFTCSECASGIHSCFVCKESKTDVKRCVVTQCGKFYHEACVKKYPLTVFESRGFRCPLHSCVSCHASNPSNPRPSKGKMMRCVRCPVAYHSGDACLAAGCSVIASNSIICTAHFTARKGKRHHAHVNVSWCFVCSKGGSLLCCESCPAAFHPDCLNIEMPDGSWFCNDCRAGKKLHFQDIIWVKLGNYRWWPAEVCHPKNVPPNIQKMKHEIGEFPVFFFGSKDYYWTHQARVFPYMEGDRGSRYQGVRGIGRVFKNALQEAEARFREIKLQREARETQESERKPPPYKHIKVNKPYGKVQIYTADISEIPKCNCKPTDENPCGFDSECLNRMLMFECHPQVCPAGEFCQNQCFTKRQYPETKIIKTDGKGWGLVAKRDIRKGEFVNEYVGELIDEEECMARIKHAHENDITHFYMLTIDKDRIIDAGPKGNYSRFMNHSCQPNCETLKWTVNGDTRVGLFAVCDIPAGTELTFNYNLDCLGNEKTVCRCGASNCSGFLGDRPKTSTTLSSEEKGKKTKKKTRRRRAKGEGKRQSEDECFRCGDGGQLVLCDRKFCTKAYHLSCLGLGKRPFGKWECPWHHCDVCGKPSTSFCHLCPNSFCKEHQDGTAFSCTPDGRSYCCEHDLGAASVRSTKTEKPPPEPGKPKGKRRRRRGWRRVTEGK

Cytochrome P450 2D6 = Cytochrome P450 2D6 (Homo sapiens, UniProt P10635); test: qHTS Assay for Inhibitors and Substrates of Cytochrome P450 2D6. [Related pubchem assays: 410 ]; assay type: ADME; conditions: read-out: Potency
[15] = target: T5, Alkaline phosphatase, tissue-nonspecific isozyme (Homo sapiens, UniProt P05186)
T5 sequence (P05186 whole entry): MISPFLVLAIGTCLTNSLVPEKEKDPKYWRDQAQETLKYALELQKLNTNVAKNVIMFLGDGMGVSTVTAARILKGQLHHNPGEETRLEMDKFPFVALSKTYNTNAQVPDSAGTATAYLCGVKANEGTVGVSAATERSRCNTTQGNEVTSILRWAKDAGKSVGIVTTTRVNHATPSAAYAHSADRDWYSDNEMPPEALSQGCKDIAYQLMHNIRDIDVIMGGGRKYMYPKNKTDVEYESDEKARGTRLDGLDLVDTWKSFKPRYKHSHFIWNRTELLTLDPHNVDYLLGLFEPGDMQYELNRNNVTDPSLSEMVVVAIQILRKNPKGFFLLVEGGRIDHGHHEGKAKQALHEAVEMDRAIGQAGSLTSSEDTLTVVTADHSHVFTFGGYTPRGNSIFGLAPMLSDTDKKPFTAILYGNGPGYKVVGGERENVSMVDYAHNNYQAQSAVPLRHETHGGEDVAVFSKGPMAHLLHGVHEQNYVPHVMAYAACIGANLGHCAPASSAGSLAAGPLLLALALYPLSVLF

Procathepsin L = Procathepsin L (Homo sapiens, UniProt P07711)
Aspartyl aminopeptidase = Aspartyl aminopeptidase (Plasmodium falciparum 3D7, UniProt Q8I2J3)
[16] = target: Eukaryotic translation initiation factor 4H (Homo sapiens, UniProt Q15056); test: human eIF4H binding inhibitors, primary screen, translation initiation inhibitor project, biochemical, uHTS, fluorescence polarization (AID 2012)
[17] = target: Polyadenylate-binding protein 1 (Homo sapiens, UniProt P11940); test: PABP poly(A) RNA binding inhibitors, primary screen, biochemical, fluorescence polarization, uHTS (AID 2014)
[18] = target: DNA dC->dU-editing enzyme APOBEC-3G (Homo sapiens, UniProt Q9HC16); assay type: functional;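 also: Dose-response counterscreen measuring inhibition of APOBEC3G DNA deaminase activity, run while confirming APOBEC3A inhibitors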
[19] = target: DNA dC->dU-editing enzyme APOBEC-3A (Homo sapiens, UniProt P31941); test: Dose Response confirmation of small molecule APOBEC3A DNA Deaminase Inhibitors via a fluorescence-based single-stranded DNA deaminase assay. [Related pubchem assays (depositor defined):AID493011, AID493024]; assay type: functional
DNA dC->dU-editing enzyme APOBEC-3A, sequence (P31941 whole entry): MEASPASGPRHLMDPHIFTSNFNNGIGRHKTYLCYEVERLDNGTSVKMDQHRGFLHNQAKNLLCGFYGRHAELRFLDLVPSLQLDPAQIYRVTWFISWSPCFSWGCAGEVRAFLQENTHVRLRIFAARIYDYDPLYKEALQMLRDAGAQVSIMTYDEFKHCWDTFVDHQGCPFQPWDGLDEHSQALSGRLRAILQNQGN

T1 sequence (Q9NZJ5 whole entry): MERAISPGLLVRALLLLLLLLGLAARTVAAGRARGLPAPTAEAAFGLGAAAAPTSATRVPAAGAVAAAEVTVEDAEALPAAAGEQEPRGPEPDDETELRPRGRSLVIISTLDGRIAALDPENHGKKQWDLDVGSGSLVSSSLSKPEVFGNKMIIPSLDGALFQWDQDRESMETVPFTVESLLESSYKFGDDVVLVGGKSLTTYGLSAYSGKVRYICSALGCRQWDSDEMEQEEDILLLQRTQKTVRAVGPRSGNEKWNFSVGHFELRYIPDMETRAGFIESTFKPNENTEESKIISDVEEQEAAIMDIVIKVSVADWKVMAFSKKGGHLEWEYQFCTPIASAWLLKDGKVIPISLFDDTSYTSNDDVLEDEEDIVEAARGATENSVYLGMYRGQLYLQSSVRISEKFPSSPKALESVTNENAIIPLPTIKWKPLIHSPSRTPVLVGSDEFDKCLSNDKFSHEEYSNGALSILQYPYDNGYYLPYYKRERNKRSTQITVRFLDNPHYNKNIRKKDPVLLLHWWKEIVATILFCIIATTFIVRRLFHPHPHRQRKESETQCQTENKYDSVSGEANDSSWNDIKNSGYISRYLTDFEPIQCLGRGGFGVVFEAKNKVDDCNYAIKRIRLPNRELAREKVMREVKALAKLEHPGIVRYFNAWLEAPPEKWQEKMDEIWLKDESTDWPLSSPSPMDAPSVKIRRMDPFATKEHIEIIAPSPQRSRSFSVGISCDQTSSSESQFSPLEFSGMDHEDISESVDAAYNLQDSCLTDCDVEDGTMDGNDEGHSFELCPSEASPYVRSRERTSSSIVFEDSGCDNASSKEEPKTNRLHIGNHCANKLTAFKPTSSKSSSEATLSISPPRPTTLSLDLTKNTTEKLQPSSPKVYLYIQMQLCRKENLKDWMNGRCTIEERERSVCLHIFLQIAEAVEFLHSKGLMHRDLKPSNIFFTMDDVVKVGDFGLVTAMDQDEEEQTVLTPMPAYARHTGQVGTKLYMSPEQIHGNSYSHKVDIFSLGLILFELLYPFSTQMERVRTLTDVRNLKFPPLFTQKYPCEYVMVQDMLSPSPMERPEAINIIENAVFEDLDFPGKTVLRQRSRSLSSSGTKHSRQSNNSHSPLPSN
T2 sequence (Q00975 whole entry): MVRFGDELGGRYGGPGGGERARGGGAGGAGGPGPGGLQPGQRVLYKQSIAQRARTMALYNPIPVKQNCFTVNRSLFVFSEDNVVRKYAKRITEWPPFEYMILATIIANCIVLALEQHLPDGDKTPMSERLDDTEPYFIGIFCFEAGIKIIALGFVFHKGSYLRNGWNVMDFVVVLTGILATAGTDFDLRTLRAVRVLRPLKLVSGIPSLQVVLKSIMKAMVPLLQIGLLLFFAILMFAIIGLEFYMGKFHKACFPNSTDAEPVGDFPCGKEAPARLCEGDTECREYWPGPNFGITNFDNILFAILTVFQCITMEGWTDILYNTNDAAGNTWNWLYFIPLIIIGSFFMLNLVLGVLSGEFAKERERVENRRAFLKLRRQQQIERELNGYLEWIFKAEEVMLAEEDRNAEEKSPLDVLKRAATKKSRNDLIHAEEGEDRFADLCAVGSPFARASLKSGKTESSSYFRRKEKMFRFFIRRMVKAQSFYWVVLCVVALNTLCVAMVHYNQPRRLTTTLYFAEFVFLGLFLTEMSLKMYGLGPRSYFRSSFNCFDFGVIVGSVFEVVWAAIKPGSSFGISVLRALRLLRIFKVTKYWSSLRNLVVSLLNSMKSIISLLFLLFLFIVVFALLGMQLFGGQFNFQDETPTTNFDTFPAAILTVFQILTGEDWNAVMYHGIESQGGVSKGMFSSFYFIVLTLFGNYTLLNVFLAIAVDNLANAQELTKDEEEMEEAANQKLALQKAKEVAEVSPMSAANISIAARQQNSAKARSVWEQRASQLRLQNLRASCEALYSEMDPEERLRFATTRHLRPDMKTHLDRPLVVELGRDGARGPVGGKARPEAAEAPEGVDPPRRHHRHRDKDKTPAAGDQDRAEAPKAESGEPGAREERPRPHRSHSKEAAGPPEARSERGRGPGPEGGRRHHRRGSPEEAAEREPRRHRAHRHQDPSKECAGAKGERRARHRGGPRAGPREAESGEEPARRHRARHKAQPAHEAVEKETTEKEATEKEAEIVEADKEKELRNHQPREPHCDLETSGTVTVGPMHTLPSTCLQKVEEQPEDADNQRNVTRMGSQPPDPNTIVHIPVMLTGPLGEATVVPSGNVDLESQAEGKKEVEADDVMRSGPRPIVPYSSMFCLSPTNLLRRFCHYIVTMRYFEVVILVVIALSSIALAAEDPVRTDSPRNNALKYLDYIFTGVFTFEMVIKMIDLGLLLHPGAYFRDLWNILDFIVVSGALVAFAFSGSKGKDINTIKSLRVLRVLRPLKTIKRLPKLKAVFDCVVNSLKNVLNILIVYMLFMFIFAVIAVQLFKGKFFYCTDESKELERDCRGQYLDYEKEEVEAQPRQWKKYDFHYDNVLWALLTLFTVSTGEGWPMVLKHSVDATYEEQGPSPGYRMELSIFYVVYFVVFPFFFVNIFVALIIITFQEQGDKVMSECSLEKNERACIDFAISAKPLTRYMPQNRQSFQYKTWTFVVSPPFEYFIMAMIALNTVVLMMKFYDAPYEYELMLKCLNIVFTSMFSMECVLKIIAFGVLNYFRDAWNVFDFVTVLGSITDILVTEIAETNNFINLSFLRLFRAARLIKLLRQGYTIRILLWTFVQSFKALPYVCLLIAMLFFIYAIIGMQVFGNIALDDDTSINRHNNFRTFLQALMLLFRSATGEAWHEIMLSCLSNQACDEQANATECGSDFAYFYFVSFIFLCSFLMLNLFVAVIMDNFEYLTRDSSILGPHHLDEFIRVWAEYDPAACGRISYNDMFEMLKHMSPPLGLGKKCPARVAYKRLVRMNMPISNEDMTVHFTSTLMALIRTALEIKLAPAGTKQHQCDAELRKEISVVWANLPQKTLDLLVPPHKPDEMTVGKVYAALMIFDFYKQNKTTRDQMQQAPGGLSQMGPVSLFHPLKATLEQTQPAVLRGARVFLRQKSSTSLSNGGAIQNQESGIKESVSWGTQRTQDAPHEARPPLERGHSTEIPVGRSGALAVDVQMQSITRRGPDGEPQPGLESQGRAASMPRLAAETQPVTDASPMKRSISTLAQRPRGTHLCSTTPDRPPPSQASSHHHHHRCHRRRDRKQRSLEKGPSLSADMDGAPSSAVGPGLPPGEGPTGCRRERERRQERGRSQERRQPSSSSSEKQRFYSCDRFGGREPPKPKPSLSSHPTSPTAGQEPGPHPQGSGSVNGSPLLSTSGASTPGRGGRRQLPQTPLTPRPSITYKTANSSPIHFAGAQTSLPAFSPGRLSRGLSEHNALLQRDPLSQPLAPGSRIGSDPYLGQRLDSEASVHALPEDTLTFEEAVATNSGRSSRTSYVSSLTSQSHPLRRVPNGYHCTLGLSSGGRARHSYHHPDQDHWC
T2 sequence (Q02410 whole entry): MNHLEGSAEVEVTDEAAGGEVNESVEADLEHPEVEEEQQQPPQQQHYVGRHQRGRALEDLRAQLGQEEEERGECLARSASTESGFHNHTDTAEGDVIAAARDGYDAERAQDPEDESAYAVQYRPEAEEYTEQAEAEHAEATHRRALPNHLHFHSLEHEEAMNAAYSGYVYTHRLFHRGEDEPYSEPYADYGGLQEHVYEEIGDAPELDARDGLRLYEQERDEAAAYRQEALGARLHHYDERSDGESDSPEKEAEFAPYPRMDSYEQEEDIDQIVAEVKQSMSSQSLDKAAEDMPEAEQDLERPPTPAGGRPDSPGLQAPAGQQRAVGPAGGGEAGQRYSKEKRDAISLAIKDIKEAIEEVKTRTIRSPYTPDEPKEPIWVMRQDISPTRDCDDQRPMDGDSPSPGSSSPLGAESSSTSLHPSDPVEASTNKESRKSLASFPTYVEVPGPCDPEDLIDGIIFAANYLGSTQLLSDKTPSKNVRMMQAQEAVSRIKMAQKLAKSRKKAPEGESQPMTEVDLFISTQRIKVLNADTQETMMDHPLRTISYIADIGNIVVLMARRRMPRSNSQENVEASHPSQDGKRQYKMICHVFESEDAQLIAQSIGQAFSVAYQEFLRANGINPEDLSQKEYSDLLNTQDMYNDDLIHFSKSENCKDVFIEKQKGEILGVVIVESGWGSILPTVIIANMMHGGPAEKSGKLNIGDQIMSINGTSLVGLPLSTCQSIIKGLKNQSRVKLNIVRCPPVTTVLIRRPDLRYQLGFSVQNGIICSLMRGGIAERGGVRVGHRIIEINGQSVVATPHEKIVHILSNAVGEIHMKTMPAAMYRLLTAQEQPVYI
Likely tRNA 2'-phosphotransferase, sequence (Q5A7N4 whole entry): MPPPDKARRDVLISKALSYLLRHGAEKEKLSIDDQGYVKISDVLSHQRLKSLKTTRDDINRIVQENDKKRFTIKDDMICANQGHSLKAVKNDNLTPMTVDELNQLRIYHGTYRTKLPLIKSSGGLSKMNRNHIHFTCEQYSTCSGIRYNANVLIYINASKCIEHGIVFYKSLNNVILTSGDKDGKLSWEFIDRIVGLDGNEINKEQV
Guanyl-specific ribonuclease T1, sequence (P00651 whole entry): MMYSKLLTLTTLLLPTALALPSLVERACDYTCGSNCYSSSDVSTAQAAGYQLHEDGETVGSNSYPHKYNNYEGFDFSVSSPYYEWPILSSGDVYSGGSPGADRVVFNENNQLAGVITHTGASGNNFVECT

With CC(=O)c1ccc(S(=O)(=O)N2CCN(CC#N)CC2)cc1 the EC50 [1] was > 55.7 µM (not active) and the EC50 [2] was > 55.7 µM (not active).
With COc1cccc2cc(C(=O)C3=C(O)C(=O)N(CCN4CCOCC4)C3c3cccs3)oc12 (centres undefined) the IC50 [3] was > 39.8 µM (not active) and the IC50 [4] was 13.7 µM (not active).
With CC1=C(C#N)C(=O)N(C2CCS(=O)(=O)C2)C(=O)/C1=C\c1ccco1 (centres undefined) the IC50 (Large T antigen) was 7.93 µM (active), the IC50 [5] was 0.142 µM (active) and the IC50 [6] was > 56.8 µM (not active). For the same molecule, the IC50 [7] was 4.68 µM (active) and the IC50 [8] was > 55.7 µM (not active).
With CCOc1cc(/C=C2\N=C(SC(C)C(N)=O)N(c3ccc(OC(F)F)cc3)C2=O)ccc1O (centres undefined) the IC50 [9] was 91.2 µM (active), the EC50 (Troponin, cardiac muscle) was 8.42 µM (active) and the EC50 [10] was 19.4 µM (active). The EC50 [11] was 10.7 µM (active) and the CC50 [12] was 51.2 µM (active).
In the case of CCN(CC)CCCNC(=O)c1cc(-c2cccc(Cl)c2)on1, the EC50 [13] is reported as > 50 µM (not active) and the AC50 [14] is reported as > 20 µM (inactive).
In the case of CC12C=C(/C=C/c3ccc(Br)cc3)C(C)(C1)C(c1ccc(Br)cc1)CC2=O (centres undefined), the AC50 (Cytochrome P450 2D6) is reported as 7.94 µM (inconclusive).
In the case of Fc1ccccc1N1CC(c2ccccc2)C(c2cccs2)=N1 (centres undefined), the EC50 [15] is reported as > 100 µM (not active).
With O=C(Nn1cnnc1)c1csc2ccccc12 the IC50 (Procathepsin L) was > 59.6 µM (not active) and the IC50 (Aspartyl aminopeptidase) was 2.17 µM (active).
For COCCN1C(NCCCOC(C)C)=N[C@@H](c2ccccc2)C(C(=O)OC)=C1C, the IC50 [16] was > 100 µM (inactive), the IC50 [17] was 8.01 µM (active) and the IC50 [18] was 4.32 µM (active). The IC50 [19] was 5.67 µM (active).
